Assays:
Assay type in all cases: in vivo
[1] = test system: haematopoietic stem cells (HSCs) and progenitor cells (CFU-GEMM); test: mobilisation of haematopoietic progenitor cells in mice (FIG. 1); conditions: assessed 1 hour later, vs vehicle
Method: FIG. 1 is a graph showing the degree of mobilisation of haematopoietic stem cells (HSCs) and progenitor cells (CFU-GEMM) in mice following injection of vehicle, AMD3100 (5 mg/kg) and 6-{4-[1-(Propan-2-yl)piperidin-4-yl]-1,4-diazepan-1-yl}-N-(pyridin-4-yl)pyridine-2-carboxamide (30 mg/kg).
In the experiment represented by FIG. 1, groups of 5 mice were injected with vehicle, AMD3100 (5 mg/kg) or injected sub cutaneously with 6-{4-[1-(Propan-2-yl)piperidin-4-yl]-1,4-diazepan-1-yl}-N-(pyridin-4-yl)pyridine-2-carboxamide (30 mg/kg) and the mobilisation of haematopoietic progenitor cells assessed 1 hour later. The data are expressed for the multipotential GEMM cells as colony forming units per ml of peripheral blood.

[2] = test system: human glioblastoma cell line (T98G); test: T98G subcutaneous xenograft growth in nude mice (FIG. 2, 3)
Method: The solid line represents the control (i.e. untreated). The data in FIG. 2 are presented as % of the tumours progressing in groups of 8-10 mice, where progression is defined as a 20% increase in tumour volume. Tumour volume was determined by measuring the width and depth of the tumour with calipers, and then calculating the volume. […] After 15 days all of the control mice had progressed, whereas none of the mice treated with 6-{4-[1-(Propan-2-yl)piperidin-4-yl]-1,4-diazepan-1-yl}-N-(pyridin-4-yl)pyridine-2-carboxamide had done so. Inhibition of growth of human glioblastoma cell line (T98G) in nude mice is expected to be predictive of a beneficial therapeutic outcome in human cancer patients, including patients suffering from glioblastoma and astrocytoma.
After the subcutaneous tumours had grown to at least 120 mm^3 the mice were randomised into groups and treated with temozolomide (16 mg/kg po daily for 5 days) and 6-{4-[1-(Propan-2-yl)piperidin-4-yl]-1,4-diazepan-1-yl}-N-(pyridin-4-yl)pyridine-2-carboxamide (50 mg/kg, once per day by oral gavage, for 5 days every week, dotted line).
The data are presented in FIG. 3 as % of the tumours progressing in groups of 8-10 mice, where progression is defined as a 20% increase in tumour volume.

[3] = test system: human glioblastoma cell line (U87MG); test: orthotopic (intracranial) U87MG tumours in nude mice: survival and time to progression by luminescence (FIG. 4-10)
Method: The experiments represented by FIGS. 4, 5, and 6 had the same control (i.e. vehicle only), and therefore the same control data. For improved clarity, the line representing the control data has been removed from FIGS. 5 and 6, but retained in FIG. 4.
Nude mice were immobilized on a stereotaxic apparatus and anaesthetized. The operative field was prepared with betadine. A small hole was made at 1.0 mm anterior and 2 mm lateral to the exposed bregma. A sterile 5 μL Hamilton syringe with a 26 gauge needle was inserted at a depth of 3.0 mm from the skull surface and withdrawn by 0.5 mm to inject 3×10^3 U87MG cells in a volume of 3 μL. The injection rate was set up to 1 μL/min. After the implantation of the tumour cells, the needle was left in place for 5 min to prevent reflux. The needle was then completely withdrawn from the brain over the course of […] (1.0 mm/min), and the skin was sutured. Just before treatment initiation (5 days after injection), animals were randomized to treatment groups of 10 mice each. A small amount of cells was chosen (3×10^3) to simulate a chemo-radiotherapic treatment made after surgery in which a low number of tumour cells remain in the operatory bed, re-grow and give arise to a recurrence. Treatments were started 5 days after cell injection when no luciferase activity was detectable intracranially, and continued for 35 days. Time to progression (i.e. detection of luminescence) was assessed, and the mice followed for up to 180 days. […] The y axis parameter ‘survival’ is the percentage of mice not yet euthanized. The y axis parameter ‘probability of detection’ is the percentage of mice having a tumour that has progressed to the stage where luminescence is detected.
The following dosage administrations were used: 6-{4-[1-(Propan-2-yl)piperidin-4-yl]-1,4-diazepan-1-yl}-N-(pyridin-4-yl)pyridine-2-carboxamide was dosed at 50 mg/kg po once daily. Bevacizumab was dosed at 4 mg/kg iv every 4 days. Temozolomide was dosed at 32 mg/kg po daily. Sunitinib was dosed at 40 mg/kg po daily. Radiotherapy consisted of 3×2Gy daily.
For this experiment, 5×10^3 U87MG cells were injected using the technique described above. Following injection of the U87MG cells, tumours were detectable in the mice, which were treated for 28 days.

Structure (SMILES)	mobilisation of HSCs from the mouse bone marrow (CFU-GEMM, colony forming units per ml of peripheral blood) ([1]; 30 mg/kg sub cutaneously)	mice with tumour progression (20% increase in tumour volume) after 15 days ([2]; 50 mg/kg once per day by oral gavage, 5 days every week, all control mice had progressed)	growth of T98G subcutaneous xenografts compared to control ([2]; alone, 50 mg/kg once per day by oral gavage, 5 days every week)	anti-tumour efficacy on T98G subcutaneous xenografts (% of tumours progressing) ([2]; combination: 50 mg/kg po once per day 5 days every week + temozolomide 16 mg/kg po daily for 5 days)	delay of tumour growth (probability of detection), HR ([3]; alone, 50 mg/kg po once daily, p<0.001, FIG. 9A/9B)	delay of growth of the tumour to a size detectable through luminescence, H.R. ([3]; alone, 50 mg/kg po once daily, to vehicle, FIG. 8A/8B)	survival, HR ([3]; combination with Bevacizumab 4 mg/kg iv every 4 days, 50 mg/kg po once daily, vs vehicle, p=0.002, FIG. 4)	time taken for progression of tumours (detection by luminescence), HR ([3]; combination with Bevacizumab 4 mg/kg iv every 4 days, vs vehicle, p=0.0001, FIG. 8A)	survival, HR ([3]; combination with Sunitinib 40 mg/kg po daily, 50 mg/kg po once daily, vs vehicle, p=0.2, FIG. 7)	time taken for progression of tumours (detection by luminescence), HR ([3]; combination with Sunitinib 40 mg/kg po daily, vs vehicle, p=0.0001, FIG. 8B)	survival, HR ([3]; combination with Temozolomide 32 mg/kg po daily, 50 mg/kg po once daily, vs Temozolomide alone, p=0.02, FIG. 5)	survival, HR ([3]; combination with irradiation and temozolomide, 5x10^3 U87MG cells, tumours detectable, treated for 28 days, p=0.025, FIG. 10)	survival, HR ([3]; combination with radiotherapy 3x2Gy daily, 50 mg/kg po once daily, vs radiotherapy alone, p=0.0002, FIG. 6)	delay of tumour growth (probability of detection), HR ([3]; irradiation (3x2Gy daily) alone vs combination with irradiation, p=0.0001, FIG. 9A)	delay of tumour growth (probability of detection), HR ([3]; temozolomide (32 mg/kg po daily) alone vs combination with temozolomide, p=0.01, FIG. 9B)	mobilisation of HSCs from the mouse bone marrow (CFU-GEMM, colony forming units per ml of peripheral blood) ([1]; 5 mg/kg, P<0.05)
CC(C)N1CCC(N2CCCN(c3cccc(C(=O)Nc4ccncc4)n3)CC2)CC1 [6-{4-[1-(Propan-2-yl)piperidin-4-yl]-1,4-diazepan-1-yl}-N-(pyridin-4-yl)pyridine-2-carboxamide]	does not result in significant mobilisation	none	inhibits the growth	synergistic	3.7	3.5	3.4	9.7	1.6	5.3	2.8	2.3	4.0	4.6	2.9	–
c1cc(CN2CCCNCCNCCCNCC2)ccc1CN1CCCNCCNCCCNCC1 [AMD3100, reference compound]	–	–	–	–	–	–	–	–	–	–	–	–	–	–	–	significantly greater than that caused by vehicle

From US11311552B2, “Therapies for cancer” (PROXIMAGEN, LLC, priority 2015, dated 2022)
